This passage reports log1/IC50, IC50 and selectivity ratio results from ChEMBL document CHEMBL3414454, “Designing and exploring active N'-[(5-nitrofuran-2-yl) methylene] substituted hydrazides against three Trypanosoma cruzi strains more prevalent in Chagas disease patients” (Eur J Med Chem, 2015).

Bounds are passed on as bounds.

Broadly, the IC50 is the concentration that gives 50% inhibition.

Series [1] has as its system Trypanosoma cruzi. The series can be described thus: Anti-trypanosomal activity against Trypanosoma cruzi Y epimastigote forms assessed as inhibition of parasite growth after 72 hrs by microplate reader based assay. The format is functional, organism-based. The conditions noted are these: for IC50: Trypanosoma cruzi, Y, 72 h.
For series [2], the system named is Trypanosoma cruzi. Put plainly: Anti-trypanosomal activity against Trypanosoma cruzi Silvio X10 cl1 epimastigote forms assessed as inhibition of parasite growth after 72 hrs by microplate reader based assay. Type of series: functional, organism-based. The conditions noted are these: for IC50: Trypanosoma cruzi, Silvio X10 cl1, 72 h.
The subject of series [3] is Trypanosoma cruzi. Put plainly: Anti-trypanosomal activity against Trypanosoma cruzi Bug 2149 cl10 epimastigote forms assessed as inhibition of parasite growth after 72 hrs by microplate reader based assay. The format is functional, organism-based. The following applies: for IC50: Trypanosoma cruzi, Bug 2149 cl10, CL1-0, 72 h.
The nature of series [4]: Cytotoxicity against human LL24 cells assessed as inhibition of cell growth after 24 hrs by MTT assay. Type of series: cell-based. The following applies: LL24, 24 h. On the technique in general: Formazan colour is commonly taken as a measure of viable cells.
Series [5] in a line: Selectivity index, ratio of IC50 for human LL24 cells to IC50 for Trypanosoma cruzi Y epimastigote forms. The format is toxicity, cell-based. The following applies: read-out: Ratio IC50.
The nature of series [6]: Selectivity index, ratio of IC50 for human LL24 cells to IC50 for Trypanosoma cruzi Silvio X10 cl1 epimastigote forms. The following applies: read-out: Ratio IC50. Type of series: toxicity, cell-based.
Series [7] can be described thus: Selectivity index, ratio of IC50 for human LL24 cells to IC50 for Trypanosoma cruzi Bug 2149 cl10. The format is toxicity, cell-based. The conditions noted are these: read-out: Ratio IC50.

`CC(C)(C)c1ccc(C(=O)N/N=C/c2ccc([N+](=O)[O-])o2)cc1`: the log1/IC50 with Trypanosoma cruzi [1] came out at 5.03; with Trypanosoma cruzi [2], 4.86; with Trypanosoma cruzi [3], 4.86. Moreover, the IC50 in the series with Trypanosoma cruzi [1] is 9.43 µM; in the series on Trypanosoma cruzi [2] it was 13.7 µM; with Trypanosoma cruzi [3] it was 13.7 µM; in series [4], above 200 µM. In addition, the selectivity ratio in series [5] was above 21; in series [6] it was above 15; in series [7] it was above 15.

Consider `CCCOc1ccc(C(=O)N/N=C/c2ccc([N+](=O)[O-])o2)cc1`, for which the values for the log1/IC50 in the series on Trypanosoma cruzi [1], in the series on Trypanosoma cruzi [2] and in the series with Trypanosoma cruzi [3] were 5.13, 4.89 and 5.01, respectively. Moreover, the IC50 is 7.33 µM in the series on Trypanosoma cruzi [1], 12.8 µM in the series on Trypanosoma cruzi [2], 9.72 µM in the series with Trypanosoma cruzi [3] and above 200 µM in series [4]. The values for the selectivity ratio in series [5], in series [6] and in series [7] were above 27, above 16 and above 21, respectively.

Take `CCCCOc1ccc(C(=O)N/N=C/c2ccc([N+](=O)[O-])o2)cc1`: the log1/IC50 was 5.46 with Trypanosoma cruzi [1], 5.29 with Trypanosoma cruzi [2] and 5.37 in the series with Trypanosoma cruzi [3]. Moreover, the IC50 in the series with Trypanosoma cruzi [1] was 3.47 µM; in the series on Trypanosoma cruzi [2] it was 5.07 µM; with Trypanosoma cruzi [3], 4.25 µM; in series [4], above 200 µM. The selectivity ratio was above 58 in series [5], above 39 in series [6] and above 47 in series [7].

As to `CCCCNc1ccc(C(=O)N/N=C/c2ccc([N+](=O)[O-])o2)cc1`, the log1/IC50 in the series with Trypanosoma cruzi [1] is recorded as 5.51; in the series on Trypanosoma cruzi [2] it was 5.36; with Trypanosoma cruzi [3] it was 5.37. Also, the IC50 in the series on Trypanosoma cruzi [1] came out at 3.39 µM; in the series with Trypanosoma cruzi [2] it was 4.34 µM; in the series with Trypanosoma cruzi [3], 4.22 µM; in series [4], 47 µM. Also, the results for the selectivity ratio in series [5], in series [6] and in series [7] were 14, 11 and 11, respectively.

Regarding `O=C(N/N=C/c1ccc([N+](=O)[O-])o1)c1ccc(-c2ccccc2)cc1`, the values for the log1/IC50 in the series on Trypanosoma cruzi [1], with Trypanosoma cruzi [2] and in the series with Trypanosoma cruzi [3] were 5.93, 5.5 and 5.74, respectively. In addition, the IC50 in the series with Trypanosoma cruzi [1] was 1.17 µM; in the series with Trypanosoma cruzi [2], 3.17 µM; with Trypanosoma cruzi [3] it was 1.81 µM; in series [4], above 200 µM. In addition, the selectivity ratio in series [5] is above 176; in series [6] it was above 63; in series [7], above 110.

For `O=C(N/N=C/c1ccc([N+](=O)[O-])o1)c1ccccc1Oc1ccccc1`, the log1/IC50 in the series on Trypanosoma cruzi [1] is given as 5.11; in the series on Trypanosoma cruzi [2] it was 4.91; in the series on Trypanosoma cruzi [3], 4.91. Also, the IC50 was 7.79 µM in the series with Trypanosoma cruzi [1], 12.3 µM in the series with Trypanosoma cruzi [2], 12.2 µM in the series with Trypanosoma cruzi [3] and above 200 µM in series [4]. Also, the selectivity ratio in series [5] is above 26; in series [6] it was above 16; in series [7], above 16.

For the compound `CC1CS(=O)(=O)CCN1/N=C/c1ccc([N+](=O)[O-])o1` (centres undefined) [NIFURTIMOX], the figures for the log1/IC50 in the series on Trypanosoma cruzi [1], in the series on Trypanosoma cruzi [2] and in the series with Trypanosoma cruzi [3] were 4.89, 5.22 and 5.14, respectively. Further, the IC50 was 12.8 µM with Trypanosoma cruzi [1], 7.32 µM in the series on Trypanosoma cruzi [3] and above 200 µM in series [4]. For the same compound, the selectivity ratio was above 16 in series [5], above 33 in series [6] and above 27 in series [7].

For `CC(=O)N/N=C/c1ccc([N+](=O)[O-])o1` [NIHYDRAZONE], the log1/IC50 with Trypanosoma cruzi [1] is recorded as 4.86; with Trypanosoma cruzi [2], 4.57; in the series on Trypanosoma cruzi [3] it was 4.8. In addition, the IC50 is 13.7 µM in the series on Trypanosoma cruzi [1], 27.1 µM with Trypanosoma cruzi [2], 15.8 µM in the series on Trypanosoma cruzi [3] and above 200 µM in series [4]. Moreover, the results for the selectivity ratio in series [5], in series [6] and in series [7] were above 15, above 7 and above 13, respectively.
